Source: patent publication US12116343B2, “Inhibitors of APOL1 and methods of using same” (Vertex Pharmaceuticals Incorporated, priority 2020, dated 2024)
Where two headings read alike, the source gives them in different places.

Biological target: T1, G1 APOL1 (Homo sapiens, UniProt O14791, I384M/S342G)
T1 construct: expressed in transfected cells
T1 sequence (O14791 28-398 S342G/I384M): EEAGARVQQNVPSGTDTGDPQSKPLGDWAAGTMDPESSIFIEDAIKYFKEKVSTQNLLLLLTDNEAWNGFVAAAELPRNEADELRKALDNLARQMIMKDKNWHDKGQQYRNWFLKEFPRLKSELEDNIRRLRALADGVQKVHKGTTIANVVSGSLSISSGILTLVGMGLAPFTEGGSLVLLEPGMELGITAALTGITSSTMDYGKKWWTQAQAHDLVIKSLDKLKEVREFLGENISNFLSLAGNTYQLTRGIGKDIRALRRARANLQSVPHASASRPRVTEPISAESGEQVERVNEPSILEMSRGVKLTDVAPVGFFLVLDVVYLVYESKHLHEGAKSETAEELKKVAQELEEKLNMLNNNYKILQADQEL
Assay: Acute APOL1 Thallium Assay with inducible stable clones of HEK 293 cells
Assay type: cell-based
Settings: read-out: Thallium Assay (IC50)
Text: Acute APOL1 Thallium Assay with Inducible Stable Clones of HEK 293 Cells
Apolipoprotein L1 (APOL1) proteins form potassium-permeable cation pores in the plasma membrane. APOL1 risk variants (G1 and G2) induce greater potassium flux than G0 in HEK293 cells. This assay exploits the permeability of thallium (Tl+) through ligand-gated potassium channels. The dye produces a bright fluorescent signal upon binding to Tl+ conducted through potassium channels. The intensity of the Tl+ signal is proportional to the number of potassium channels in the open state. Therefore, it provides a functional indication of the potassium channel activities. During the initial dye-loading step, the Tl+ indicator dye as an acetoxymethyl (AM) ester enters the cells through passive diffusion. Cytoplasm esterases cleave the AM ester and relieve its active thallium-sensitive form. The cells are then stimulated with Tl+. The increase of fluorescence in the assay represents the influx of Tl+ into the cell specifically through the potassium channel (i.e. through APOL1 pores), providing a functional measurement of potassium channel/pore activity. The Thallium assay is conducted with cells expressing G1 APOL1.
APOL1 Cell Line (HEK T-Rex Stable Inducible Cell Line) • HEK T-Rex System • Tetracycline (Tet) inducible mammalian expression system. • Stably express the Tet repressor to regulate transcription. • Expression under the full-length CMV promoter. • APOL1 stable inducible cell line Clone used: G1 DC3.25
Tissue Culture Media • Cell Culture Medium • DMEM+10% FBS+P/S+5 μg/mL blasticidin+1 μg/mL puromycin. • 500 mL DMEM+55 mL FBS+5 mL P/S+280 μL blasticidin S HCl (10 mg/mL)+56 μL puromycin (10 mg/mL). • Cell Assay Medium • DMEM with 2% FBS+pen strep.
Instruments and Equipment • Nuaire cell culture hood, Cat. No. 540-600 • 37° C./5% CO2 incubator link to robotic arm, Liconic: STX110 • Molecular Devices FLIPR^Tetra High throughput cellular screening system, Cat. No. FT0324, Molecular Devices • ThermoFisher MultiDrop 384, Cat. No. 5840300 • Biotek Microfill, Cat. No. ASF1000A-4145 • BioRad TC10 cell counter, Cat. No. 145-0010 Assay Procedures
Cells Scaled Up from Frozen Vials • APOL1 G1 3.25 (HEK293 T-Rex) frozen vials: 5 million cells per vial • Step 1, Day 1: Defrost frozen vial into T-225. • Step 2, Day 5: (when 85% confluent): Split one T-225 at 3×10^6 cells per flask. • Step 3, Day 8: Splits cells to set up for the assay plates as described below.
T-Rex APOL1 HEK cells are split twice per week to keep the confluence state below 85% of the culture flask surface area. Cells can be kept until passage 25. • Cell Culture Medium • DMEM high glucose+10% FBS, +P/S, +5 μg/mL blasticidin, +1 μg/mL puromycin. • 500 mL DMEM, +55 mL FBS, +5 mL P/S, +280 μL blasicidin 10 mg/mL, +56 μL Puromycin 10 mg/mL. • Assay Media • Opti-MEM reduced serum medium from Invitrogen.
Preparation of Cell Assay Plates • Culture medium is removed from the x cm^2 T-flask by aspiration. • The cell monolayer is rinsed with PBS 1× at room temperature. PBS is removed by aspiration. • Cells are trypsinized using Trypsin. • The flasks are incubated at room temperature for 2-3 minutes. • Complete DMEM medium is then added. Cell suspension is then transferred to a 50 mL Falcon polypropylene tube. • Cells are then counted using a Biorad TC10 cell counter and the required amount of cells are centrifuged at 1200 RPM for 5 minutes. Required amount is 1.3×10^6 cells/mL APOL1 T-Rex HEK cells. • The pellet is suspended in the assay medium. • Using the MultiDrop, add 20 μL to each well (corresponds to 26000 cells total per well) of a 384-well black, transparent, flat bottom Poly-D coated plate. • Tetracycline as prepared in the following section is added to the cells before plating to induce APOL1 expression. • Plates are left at room temperature for 20 to 30 minutes before incubation at 37° C. and 5% CO2. […]

[1] = HEK 293 T-Rex cells expressing G1 APOL1

IC50 (Table 24, Compounds 287 to 465) [µM] | IC50 [1] [µM] | SMILES
> 1 |  | CC(NC(=O)C1CC(Cc2c(-c3ccc(F)cc3)[nH]c3c(F)cc(F)cc23)C1)C1CCOC1 (mixture of isomers) [Compound 345]
0.25 to 1 |  | C[C@@H](CO)NC(=O)O[C@H]1C[C@H](c2c(-c3ccc(F)cc3)[nH]c3c(F)cc(F)cc32)C1 [Compound 357]
 | > 1 | CC(C)C(CO)NC(=O)[C@H]1C[C@@H](c2c(-c3ccc(F)cc3)[nH]c3c(F)cc(F)cc32)C1 (stereo partly shown) [Compound 254]
 | > 1 | O=C1NCCC1NC(=O)[C@H]1C[C@@H](c2c(-c3ccc(F)cc3)[nH]c3c(F)cc(F)cc32)C1 (stereo partly shown) [Compound 268]
0.25 to 1 |  | O=C(NCC(F)F)O[C@H]1C[C@H](c2c(-c3ccc(F)cc3)[nH]c3c(F)cc(F)cc32)C1 [Compound 351]
> 1 |  | O=C(N[C@H]1CCNC1=O)N[C@H]1C[C@H](c2c(-c3ccc(F)cc3)[nH]c3c(F)cc(F)cc32)C1 [Compound 297]
0.25 to 1 |  | CNC(=O)NC[C@H]1C[C@H](c2c(-c3ccc(F)cc3)[nH]c3c(F)cc(F)cc32)C1 [Compound 391, 1-(((1r,3r)-3-(5,7-difluoro-2-(4-fluorophenyl)-1H-indol-3-yl)cyclobutyl)methyl)-3-methylurea]
> 1 |  | CC[C@H](NCC1CC(c2c(-c3ccc(F)cc3)[nH]c3c(F)cc(F)cc23)C1)C(=O)NCC(F)(F)F (stereo partly shown) [Compound 443]
> 1 |  | CC(C)(NCC1CC(c2c(-c3ccc(F)cc3)[nH]c3c(F)cc(F)cc23)C1)C(N)=O (stereo not shown) [Compound 440]
> 1 |  | CC(=O)NCCNC(=O)C1CC(Cc2c(-c3ccc(F)cc3)[nH]c3c(F)cc(F)cc23)C1 (stereo not shown) [Compound 320]
> 1 |  | CC(C)C[C@@H](CO)NC(=O)C1CC(Cc2c(-c3ccc(F)cc3)[nH]c3c(F)cc(F)cc23)C1 (stereo partly shown) [Compound 347]
0.25 to 1 |  | O=C(NCc1cnco1)O[C@H]1C[C@H](c2c(-c3ccc(F)cc3)[nH]c3c(F)cc(F)cc32)C1 [Compound 353]
> 1 |  | CC(C)(C)[C@H](CO)NC(=O)NC[C@H]1C[C@H](c2c(-c3ccc(F)cc3)[nH]c3c(F)cc(F)cc32)C1 [Compound 416]
> 1 |  | O=C(NCC1(CO)COC1)NC[C@H]1C[C@H](c2c(-c3ccc(F)cc3)[nH]c3c(F)cc(F)cc32)C1 [Compound 396]
> 1 |  | O=C(N[C@H]1CCOC1)O[C@H]1C[C@H](c2c(-c3ccc(F)cc3)[nH]c3c(F)cc(F)cc32)C1 [Compound 381]
0.25 to 1 |  | NC(=O)CNC(=O)O[C@H]1C[C@H](c2c(-c3ccc(F)cc3)[nH]c3c(F)cc(F)cc32)C1 [Compound 355]
> 1 |  | O=C(Nc1ccc[nH]c1=O)C1CC(Cc2c(-c3ccc(F)cc3)[nH]c3c(F)cc(F)cc23)C1 (stereo not shown) [Compound 339]
0.25 to 1 |  | CN(C)C(=O)CNCC1CC(c2c(-c3ccc(F)cc3)[nH]c3c(F)cc(F)cc23)C1 (stereo not shown) [Compound 435]
> 1 |  | O=C(N[C@H]1COC[C@@H]1O)O[C@H]1C[C@H](c2c(-c3ccc(F)cc3)[nH]c3c(F)cc(F)cc32)C1 [Compound 389]
> 1 |  | O=C(CC1CC(c2c(-c3ccc(F)cc3)[nH]c3c(F)cc(F)cc23)C1)N[C@@H]1CCNC1=O (stereo partly shown) [Compound 457]
> 1 |  | Cc1c(CNC(=O)C2CC(Cc3c(-c4ccc(F)cc4)[nH]c4c(F)cc(F)cc34)C2)cnn1C (stereo not shown) [Compound 333]
> 1 |  | COC[C@H](C)NC(=O)O[C@H]1C[C@H](c2c(-c3ccc(F)cc3)[nH]c3c(F)cc(F)cc32)C1 [Compound 364]

IC50 (Table 24, Compounds 287 to 465) [µM] | IC50 [1] [µM] | SMILES
 | < 0.25 | CC1(C(=O)NC2(CO)CC2)CC(c2c(-c3ccc(F)cc3)[nH]c3c(F)cc(F)cc23)C1 (mixture of isomers) [Compound 281]
> 1 |  | O=C(NCc1cn(CC(F)(F)F)cn1)O[C@H]1C[C@H](c2c(-c3ccc(F)cc3)[nH]c3c(F)cc(F)cc32)C1 [Compound 386]
> 1 |  | O=C(NC[C@H]1C[C@H](c2c(-c3ccc(F)cc3)[nH]c3c(F)cc(F)cc32)C1)N[C@H]1CC[C@H]1O [Compound 394]
 | > 1 | C[C@H](O)[C@H](CO)NC(=O)[C@H]1C[C@@H](c2c(-c3ccc(F)cc3)[nH]c3c(F)cc(F)cc32)C1 [Compound 245]
< 0.25 |  | CNC(=O)CNC[C@H]1C[C@H](c2c(-c3ccc(F)cc3)[nH]c3c(F)cc(F)cc32)C1 [Compound 446]
> 1 |  | CC(C)(NCC1CC(c2c(-c3ccc(F)cc3)[nH]c3c(F)cc(F)cc23)C1)C(=O)NCC(F)(F)F (stereo not shown) [Compound 442]
 | 0.25 to 1 | CC(C)(CO)NC(=O)[C@H]1C[C@@H](c2c(-c3ccc(F)cc3)[nH]c3c(F)cc(F)cc32)C1 [Compound 256]
 | > 1 | O=C(NC(CO)CO)[C@H]1C[C@@H](c2c(-c3ccc(F)cc3)[nH]c3c(F)cc(F)cc32)C1 [Compound 241]
> 1 |  | O=C(NCC1CCOC1)O[C@H]1C[C@H](c2c(-c3ccc(F)cc3)[nH]c3c(F)cc(F)cc32)C1 (stereo partly shown) [Compound 384]
> 1 |  | CN(CC1CC(c2c(-c3ccc(F)cc3)[nH]c3c(F)cc(F)cc23)C1)C(=O)NCCO (stereo not shown) [Compound 431]
> 1 |  | O=C(N[C@H]1CCNC1=O)O[C@H]1C[C@H](c2c(-c3ccc(F)cc3)[nH]c3c(F)cc(F)cc32)C1 [Compound 371]
0.25 to 1 |  | C[C@@H](CO)NC(=O)N[C@H]1C[C@H](c2c(-c3ccc(F)cc3)[nH]c3c(F)cc(F)cc32)C1 [Compound 295, 1-((1r,3S)-3-(5,7-difluoro-2-(4-fluorophenyl)-1H-indol-3-yl)cyclobutyl)-3-((S)-1-hydroxypropan-2-yl)urea]
> 1 |  | CC1(NC(=O)C2CC(Cc3c(-c4ccc(F)cc4)[nH]c4c(F)cc(F)cc34)C2)CCNC1=O (stereo not shown) [Compound 308]
> 1 |  | O=C(NCc1ccoc1)C1CC(Cc2c(-c3ccc(F)cc3)[nH]c3c(F)cc(F)cc23)C1 (stereo not shown) [Compound 317]
 | 0.25 to 1 | O=C(NC1(CO)CCC1)[C@H]1C[C@@H](c2c(-c3ccc(F)cc3)[nH]c3c(F)cc(F)cc32)C1 [Compound 240]
 | < 0.25 | C[C@@H](CO)NC(=O)[C@H]1C[C@H](c2c(-c3ccc(F)cc3)[nH]c3c(F)cc(F)cc32)C1 [Compound 27]
< 0.25 |  | O=C(CNC[C@H]1C[C@H](c2c(-c3ccc(F)cc3)[nH]c3c(F)cc(F)cc32)C1)NCO [Compound 448]
> 1 |  | O=C(Nc1c[nH][nH]c1=O)C1CC(Cc2c(-c3ccc(F)cc3)[nH]c3c(F)cc(F)cc23)C1 (stereo not shown) [Compound 310]
> 1 |  | Cc1noc(CNC(=O)C2CC(Cc3c(-c4ccc(F)cc4)[nH]c4c(F)cc(F)cc34)C2)n1 (stereo not shown) [Compound 304]
> 1 |  | C[C@]1(NC(=O)NC[C@H]2C[C@H](c3c(-c4ccc(F)cc4)[nH]c4c(F)cc(F)cc43)C2)C[C@@H](O)C1 [Compound 408]
> 1 |  | O=C(N[C@H](CO)C(F)(F)F)O[C@H]1C[C@H](c2c(-c3ccc(F)cc3)[nH]c3c(F)cc(F)cc32)C1 [Compound 362]
